Results as given in patent publication US20160258954A1, “METHOD OF DIAGNOSING AND TREATING EPSTEIN BARR VIRUS-BASED MYALGIC ENCEPHALOMYELITIS CHRONIC FATIGUE SYNDROME PATIENTS USING A SERUM ANTIBODY ASSAY” (CFS, LLC, priority 2015, published 2016).

Legend:
[1] = Group A patients
[2] = tested on: Group A ME/CFS patients (EBV, HCMV, HHV6 subsets); experiment: Systematic review 2001-2007 of Group A ME/CFS patients given subset-directed antiviral treatment; format: in vivo, human; settings: 79 of 106 group A patients, pooled valacyclovir (EBV subset) or valganciclovir (HCMV, HHV6 subsets); p<0.0001
Excerpt: A ME/CFS diagnostic panel was created utilizing initial Fukuda/Carruthers criteria and a systematic review of 142 ME/CFS patients. Two groups of ME/CFS patients were found. Group A patients had elevated serum IgG antibody titers to the herpes viruses Epstein-Barr virus (EBV), cytomegalovirus (HCMV) and Human Herpes virus 6 (HHV6) in single or multiple virus infection, but no other co-infections. Group B patients had similar elevated herpes virus antibody titers, plus serologic evidence of co-infections, tick-borne (“Borrelia burgdorferi”, “Anaplasma phagocytophilia”, “Babesia microti”); “Mycoplasma pneumoniae”; or adult rheumatoid fever. One hundred and six group A ME/CFS patients were followed from 2001-2007, and treated with subset directed valacyclovir EBV subset or valganciclovir (HCMV, HHV6 subsets). The data included over 7000 patient visits and 35,000 data entries.

SEID patients = experiment: Reviews of antiviral therapy of EBV, CMV and HHV6 subset Group A SEID patients; format: in vivo, human; settings: cidofovir: unpublished studies
Excerpt: These antiviral agents inhibit the respective DNA polymerases of the appropriate CMV, EBV, HHV6 herpesviruses.[8] […] Herpesvirus (EBV, CMV, HHV6) abortive lytic replication may be associated with SEID.

CFS patients = experiment: Cidofovir treatment of CFS patients; format: in vivo, human
Protocol: In general, to provide a therapeutically effective amount of the antiviral agent, a suitable effective dose will be in the range of 0.1 to 20 grams a day and preferably in the range between 0.3 to 15 grams per day, more preferably about 0.5 to 10 grams per day. The dosage of course, varies with the body weight of the patient up to a 70 kg individual, a dose of 4 grams per day may be appropriate (e.g., […] valacyclovir every six hours). The desired dose can be presented as two-four or more smaller doses administered at appropriate intervals throughout the day. These smaller doses may be administered in unit's dosage forms. For example, for valacyclovir and famciclovir, the dosage can be, for example 14 mg/kg every 6 hours (1.0 g every 6 hours for a 70 kg person). The dosage of valacyclovir and famciclovir can be, for example, up to or at least about 0.5-8 grams every 6 hours. The dosage of valgancyclovir can be, for example, from about 450-900 mg every 12 hours, or up to or at least about 100-2000 mg or more every 12 hours, depending on for example patient weight and tolerance. For maribavir the dosage can be, for example, for about 400-500 mg every 8 hours or for example up to or at least about 100-1000 or more every 8 hours. […] Accordingly, the dosage is adjusted to […] every two weeks. […]

[3] = tested on: EBV subset ME/CFS patients; experiment: Energy Index Point Score (EIPS) of six EBV subset ME/CFS patients treated with valacyclovir for over 12 months; format: in vivo, human
Excerpt: FIG. 2A is a table depicting the clinical results that establish EBV Abortive Lytic replication in the first of six EBV subset ME/CFS patients treated with valacyclovir for over 12 months;
As depicted in FIG. 1, the Energy Index (EI) point score (Copyright, Lerner AM and Deeter R G, 1999), is a simple and reliable metric that can be used to easily evaluate the functional capacity of the CFS patient at each patient-physician visit. *The CFS Energy Index point score can also be determined by questionnaire (US copyright, 1999 Lerner A. M., Deeter, R. J) reproduced with permission. **Kcal per day is calculated for a 70 kg CFS patient. The EI is measured on a scale of 1-10. Validation of the EI was done using two methods: 1.) 20 CFS patients and 22 healthy adults, matched for sex, age, place, and time; EI, CFS=3.6; EI, healthy adults=9.9, p=<0.0001; and 2.) 55 CFS patients evaluated at the same time by the EI and fatigue severity score, correlation 0.67, p=0.0066. Improvement to disappearance of CFS symptoms correlates with an increasing EI.
The validated energy index point score generally can be calculated for each CFS patient every 3 months at physician visits. […]
Demographics. […] The EIPS is a validated (FSS-9 item scale with high degree of internal consistency measured by Cronbach's alpha) is a Functional Activity Appraisal: energy Index Score Healthcare worker Appraisal.

EBV thymidine kinase = EBV thymidine kinase (Epstein-Barr virus, UniProt P03177); settings: after gastrointestinal absorption; cited from earlier work
Chain of EBV thymidine kinase (P03177 whole entry): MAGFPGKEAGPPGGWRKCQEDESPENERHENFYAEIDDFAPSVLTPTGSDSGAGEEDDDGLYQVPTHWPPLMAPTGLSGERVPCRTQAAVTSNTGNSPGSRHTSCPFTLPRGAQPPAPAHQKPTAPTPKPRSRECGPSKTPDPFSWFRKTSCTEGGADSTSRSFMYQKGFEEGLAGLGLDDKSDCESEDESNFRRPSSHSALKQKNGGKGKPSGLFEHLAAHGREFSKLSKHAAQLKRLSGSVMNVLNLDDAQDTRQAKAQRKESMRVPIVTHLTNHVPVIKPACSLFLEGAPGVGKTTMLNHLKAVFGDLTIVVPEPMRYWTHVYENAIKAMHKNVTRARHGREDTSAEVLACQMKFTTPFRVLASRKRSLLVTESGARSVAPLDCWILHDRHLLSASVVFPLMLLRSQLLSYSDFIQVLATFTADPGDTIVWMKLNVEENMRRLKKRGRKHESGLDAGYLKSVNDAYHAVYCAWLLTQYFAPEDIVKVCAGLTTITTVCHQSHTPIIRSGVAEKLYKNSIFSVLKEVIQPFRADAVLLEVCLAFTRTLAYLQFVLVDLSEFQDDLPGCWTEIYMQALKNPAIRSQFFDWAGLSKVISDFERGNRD

Q: For `Nc1nc2c(ncn2COCCO)c(=O)[nH]1` [acylocivir], which absorption [1] is on record?
A: Its absorption is “typically not absorbed”.

Q: Which results are given for `CC(C)[C@H](N)C(=O)OCC(CO)OCn1cnc2c(=O)nc(N)[nH]c21` (stereo partly drawn) [valganciclovir]?
A: Group A patients recovered to resume normal life [2]: 74.5%; therapeutic result in SEID patients (SEID patients): salutary results

Q: With `Nc1ccn(C[C@@H](CO)OCP(=O)(O)O)c(=O)n1` [cidofovir] as the compound, how does the “therapeutic result in SEID patients” value (SEID patients) read?
A: The value was “salutary results”.

Q: And the “effectiveness relative to other antiviral agents” value (CFS patients; administered intravenously)?
A: The value was “two to three time more effective”.

Q: And the treatment time (CFS patients; patients over 50 and/or CFS over 10 years, reduced from over one year)?
A: The treatment time was 6-9 months.

Q: Which “Group A patients recovered to resume normal life” value [2] does the source give for `CC(C)[C@H](N)C(=O)OCCOCn1cnc2c(=O)[nH]c(N)nc21` [valacyclovir] here?
A: The value was 74.5%.

Q: What about the “final EIPS values” ([3]; 5 group A ME/CFS patients, one year later, initial EIPS 3.5-5.0 (one patient 6)) of the same compound?
A: The value was 7-8.

Q: What about the “final EIPS value” ([3]; single group B ME/CFS patient (Borrelia burgdorferi co-infection), baseline 3.5) of the same compound?
A: The value was 5.

Q: What about the “therapeutic result in SEID patients” value (SEID patients) of the same compound?
A: The value was “salutary results”.

Q: What about the “greater affinity for EBV thymidine kinase than for the host cellular enzyme” value (EBV thymidine kinase) of the same compound?
A: Its value is 200 ×.

Q: For `CC(=O)OCC(CCn1cnc2cnc(N)nc21)COC(C)=O` [famciclovir], which “therapeutic result in SEID patients” value (SEID patients) is on record?
A: Its value is “salutary results”.
